Reference: patent US20240199582A1, “INHIBITORS OF POLY(ADP-RIBOSE) POLYMERASE” (RHIZEN PHARMACEUTICALS AG, priority 2021, published 2024)

Tests used:
[1] = test system: BRCA mutant and non-BRCA mutant cancer cell lines; experiment: Cell proliferation assay to determine GI50 in BRCA mutant and non-BRCA mutant cancer cell lines; format: cell-based; settings: range over BRCA mutant and non-BRCA mutant cancer cell lines; treatment 72, 120 or 144 hours
Description: On Day “0” the test cells were plated in 100 μL/well in complete media in a 96-well plate in triplicates and plates were incubated at 37° C. and 5% CO2. On Day 1, 10 μL of MTT (5 mg/ml) were added to the column designated for Day “0”. It was mixed well and incubated at 37° C. and 5% CO2 for 3.5 h. Cells were pelleted down at 4000 rpm for 10 minutes. Media was aspirated out and 150 μL of DMSO were added to the cells and mixed by pipetting to dissolve the crystals. Plate was read at A560 nm and A640. DMSO dilutions of the inhibitors (Compound 1 or Compound 1D) were diluted to 3× of required concentration in growth medium. Cells in each well were treated with 50 μL of complete media containing inhibitor. DMSO concentration in the well was 0.1%. Plates were incubated at 37° C. and 5% CO2 as required for 144 hours. 15 μL of MTT (5 mg/mL) was added to the wells. Plates were incubated at 37° C. and 5% CO2 for 3.5 hours. After incubation, cells are pelleted down at 4000 rpm for 10 min. Media was aspirated and 150 μL of DMSO per well were added to dissolve the formazan crystals. Plate was read at A560 nm and A640. […]
Cancer cell lines were plated at desired density in their respective complete media and incubated overnight at 37° C. and 5% CO2. […] At the end of the treatment period, cell viability was measured and GI50 values were calculated.

[2] = Rat pharmacokinetics (oral and IV), plasma by LC-MS/MS; format: in vivo, rats (Wistar rat strains); settings: for AUC(0-t): Compound 1 prepared by Method 2, Compound 1D prepared by Method 2, read-out: AUC0-24
Description: The oral bioavailability of Compound 1 and its salts were evaluated in rats. The protocol for the pharmacokinetic (PK) studies in rats is provided below.
Formulation 1: Polysorbate 80 (10% v/v)+Methyl Cellulose (MC) (0.5% w/v) • 1. 200 mg^#of the test compound was weighed and transferred into a mortar. • 2. 1.0 mL of polysorbate 80 (10% v/v of the final suspension) was added to the mortar and the test item was triturated to afford a smooth paste. • 3. 9.0 mL of 0.5% methyl cellulose (4000 cps) was added and triturated to afford a fine suspension. • 4. The final strength of the formulation was 20.0 mg/mL. #For salts of the test compound in order to achieve the equivalent dose level on a molar basis as the free base, a correction factor was used based on the salt and purity. Formulation 2: Propylene Glycol (40% v/v)+60% Methyl Cellulose (MC) (0.5% w/v) • 1. 1400 mg #of the test compound was weighed and transferred into a glass beaker. • 2. 28.0 mL of propylene glycol (1,2-popanediol) (40% v/v of the final volume) was added to the glass beaker and sonicated for 20 min to dissolve. (strength is 50 mg/mL) • 3. At the time of dosing, 20 mL of propylene glycol (50.0 mg/mL) and 30.0 mL of 0.5% methyl cellulose (4000 cps) were mixed with continuous stirring to afford a clear solution • 4. The final strength of the formulation was 20.0 mg/mL. • #For salts of the test compound in order to achieve the equivalent dose level on a molar basis as the free base, a correction factor was used based on the salt and purity.
(§1) Protocol: All animals (mice (BALB/c mice), rats (Wistar rat strains), and dogs (beagle, non-naïve)) were fasted overnight (12 hours) before dosing and continued till 4.0 hours after administration of test item. The blood samples (all collections each of 150 μL from each animal) were collected according to the sampling schedule from orbital sinus or jugular vein into the micro centrifuge tube containing dipotassium EDTA as an anticoagulant. Blood samples were centrifuged immediately with a speed of 4000 RPM for 10 min at 4° C. and separated plasma samples were frozen at below −80° C. and stored until analysis. The plasma concentrations of test item in all samples were analysed by LC-MS/MS method Pharmacokinetic parameters viz. Cmax, AUC0-t, AUC0-∞, Tmax, and t½, were estimated by using WinNonlin software.

[3] = Dog pharmacokinetics (IV and oral), plasma by LC-MS/MS; format: in vivo, dogs (beagle, non-naïve)
Description: as §1

[4] = Mice pharmacokinetics (IV and oral), plasma by LC-MS/MS; format: in vivo, mice (BALB/c mice)
Description: as §1

[5] = Wistar, plasma, oral, 100 mg/kg, Formulation 1: Polysorbate 80 (10% v/v) + MC (0.5% w/v), Compound 1 prepared by Method 2, Compound 1D prepared by Method 2
[6] = Wistar, plasma, oral, 100 mg/kg, Formulation 1: Polysorbate 80 (10% v/v) + MC (0.5% w/v)
[7] = Wistar, plasma, oral, 100 mg/kg, Formulation 1: Polysorbate 80 (10% v/v) + MC (0.5% w/v), Compound 1 prepared by Method 2, Compound 1D prepared by Method 2, read-out: Tmax
[8] = oral, 100 mg/kg, Formulation 1: Polysorbate 80 (10% v/v) + MC (0.5% w/v), Compound 1 prepared by Method 2, Compound 1D prepared by Method 2
[9] = oral, 100 mg/kg, Formulation 1: Polysorbate 80 (10% v/v) + MC (0.5% w/v), Compound 1 prepared by Method 2, Compound 1D prepared by Method 2, 100 mg/kg
[10] = oral, 100 mg/kg, Formulation 1: Polysorbate 80 (10% v/v) + MC (0.5% w/v), Compound 1C prepared by Method 1
[11] = oral, 100 mg/kg, Formulation 1: Polysorbate 80 (10% v/v) + MC (0.5% w/v), Compound 1C prepared by Method 2
[12] = oral, 100 mg/kg, Formulation 2: PG (40% v/v) + 60% MC (0.5% w/v), Compound 1D prepared by Method 2
[13] = oral, 100 mg/kg, Formulation 2: PG (40% v/v) + 60% MC (0.5% w/v), Compound 1D prepared by Method 3

C[C@]1(O)C(=O)N(c2cncc(Cc3n[nH]c(=O)c4ccccc34)c2)c2ccccc21 [Compound 1, (R)-(+)-4-((5-(3-Hydroxy-3-methyl-2-oxoindolin-1-yl)pyridin-3-yl)methyl)phthalazin-1(2H)-one]
GI50 [1]: 0.043 to 19.8 µM
melting point: 110 to 113 °C
Cmax [2, 5]: 2.56 µM
AUC(0-t) [2, 6]: 7.81 µM·h
Tmax [2, 7]: 30 min

C[C@]1(O)C(=O)N(c2cncc(Cc3n[nH]c(=O)c4ccccc34)c2)c2ccccc21.Cl [Compound 1A, (R)-(+)-4-((5-(3-Hydroxy-3-methyl-2-oxoindolin-1-yl)pyridin-3-yl)methyl)phthalazin-1(2H)-one, hydrochloride]
melting point: 226 to 228 °C
Cmax [2, 5]: 4.38 µM
AUC(0-t) [2, 6]: 23.3 µM·h
Tmax [2, 7]: 15 min

C[C@]1(O)C(=O)N(c2cncc(Cc3n[nH]c(=O)c4ccccc34)c2)c2ccccc21.O=S(=O)(O)c1ccccc1 [Compound 1B, (R)-(+)-4-((5-(3-hydroxy-3-methyl-2-oxoindolin-1-yl)pyridin-3-yl)methyl)phthalazin-1(2H)-one, benzene sulfonate]
AUC0-24 [2, 8]: 32.43 µM·h
Tmax [2, 8]: 30 min
Cmax [2, 9]: 17.2 µM

C[C@]1(O)C(=O)N(c2cncc(Cc3n[nH]c(=O)c4ccccc34)c2)c2ccccc21.Cc1ccc(S(=O)(=O)O)cc1 [Compound 1C, (R)-(+)-4-((5-(3-hydroxy-3-methyl-2-oxoindolin-1-yl)pyridin-3-yl)methyl)phthalazin-1(2H)-one, 4-methylbenzene sulfonate]
AUC0-24 [2, 10]: 39.98 µM·h
Cmax [2, 10]: 11.9 µM
Tmax [2, 10]: 30 min
AUC0-24 [2, 11]: 23.09 µM·h
Cmax [2, 11]: 10.5 µM
Tmax [2, 11]: 15 min

CS(=O)(=O)O.C[C@]1(O)C(=O)N(c2cncc(Cc3n[nH]c(=O)c4ccccc34)c2)c2ccccc21 [Compound 1D, (R)-(+)-4-((5-(3-Hydroxy-3-methyl-2-oxoindolin-1-yl)pyridin-3-yl)methyl)phthalazin-1(2H)-one, methane sulfonate]
AUC0-24 ([3]; IV, 1 mg/kg): 2.73 µM·h
C0 ([3]; IV, 1 mg/kg): 4.11 µM
Cmax ([3]; IV, 1 mg/kg): 3.47 µM
AUC0-24 ([3]; oral, 20 mg/kg): 57.05 µM·h
Cmax ([3]; oral, 20 mg/kg): 22.9 µM
Tmax ([3]; oral, 20 mg/kg): 30 min
AUC0-24 ([4]; IV, 1 mg/kg): 1.12 µM·h
C0 ([4]; IV, 1 mg/kg): 3.12 µM
Cmax ([4]; IV, 1 mg/kg): 2.87 µM
AUC0-24 ([4]; oral, 10 mg/kg): 5.64 µM·h
Cmax ([4]; oral, 10 mg/kg): 7.62 µM
Tmax ([4]; oral, 10 mg/kg): 15 min
AUC0-24 ([2]; IV, 1 mg/kg): 1.18 µM·h
C0 ([2]; IV, 1 mg/kg): 5.25 µM
Cmax ([2]; IV, 1 mg/kg): 4.47 µM
AUC0-24 ([2]; oral, 10 mg/kg): 8.96 µM·h
Cmax ([2]; oral, 10 mg/kg): 8.43 µM
Tmax ([2]; oral, 10 mg/kg): 22.8 min
AUC0-24 [2, 8]: 34.71 µM·h
Tmax [2, 8]: 15 min
Cmax [2, 9]: 13 µM
AUC0-24 [2, 12]: 135.36 µM·h
Cmax [2, 12]: 55.6 µM
Tmax [2, 12]: 30 min
AUC0-24 [2, 13]: 139.36 µM·h
Cmax [2, 13]: 53.7 µM
Tmax [2, 13]: 30 min
